Values after ≈ are worked out from the molar mass of the structure shown. Read-outs that look alike come from different tables or passages of the source.

For five compounds, MIC results are on record in publication PMC12203862, “BroadAMP-GPT: AI-Driven generation of broad-spectrum antimicrobial peptides for combating multidrug-resistant ESKAPE pathogens” (Gut Microbes, 2025).

One assay relates to A. baumannii 7979. In words: microbe, parasite or virus in culture. Type of assay: cell-based. To be noted: Table 1, A. baumannii 7979, broth microdilution. As to the method:
(§1) Bacterial strains and growth conditions: All Gram-negative and Gram-positive bacterial strains (Supplementary Table S8) were cultured in Luria-Bertani (LB) or trypticase soy broth (TSB) agar plates, respectively, and incubated overnight at 37 °C unless specifically indicated. A single colony of the tested bacterial strains was inoculated into medium broth with shaking at 220 rpm for further experiments.
(§2) Minimal inhibitory concentrations: Antimicrobial susceptibility testing was performed by broth microdilution method for AMPs against Gram-positive and Gram-negative pathogens above mentioned, following the methods of document CLSI M100-ED34.[43] The MICs were defined as the lowest concentrations that inhibit visible growth of the tested bacteria. E. coli ATCC 25,922 and S. aureus ATCC 29,213 were served as quality controls.
(Broth dilution looks for growth in wells or tubes with falling amounts of substance.)

Another assay concerns A. baumannii AB11. In words: microbe, parasite or virus in culture. The assay is classed as cell-based. As to the method: as §1, §2
The next assay concerns E. coli ATCC 25922. Briefly: microbe, parasite or virus in culture. The assay is classed as cell-based. The protocol: as §1, §2
The next assay deals with K. pneumoniae 9-1. Briefly: microbe, parasite or virus in culture. The assay is classed as cell-based. To be noted: Table 1, K. pneumoniae 9-1, broth microdilution. As to the method: as §1, §2
For a further assay, the system named is P. aeruginosa PA14. In words: microbe, parasite or virus in culture. The assay is classed as cell-based. As to the method: as §1, §2
Another assay concerns P. aeruginosa PAO1. Briefly: microbe, parasite or virus in culture. The assay is classed as cell-based. To be noted: Table 1, P. aeruginosa PAO1, broth microdilution. The protocol: as §1, §2
For a further assay, the system named is S. enteritis S1. Briefly: organism not typed. The assay is classed as cell-based. To be noted: Table 1, S. enteritis S1, broth microdilution. The protocol:
as §1, §2

The next assay deals with S. aureus ATCC 29213. Briefly: microbe, parasite or virus in culture. The assay is classed as cell-based. To be noted: Staphylococcus aureus, ATCC29213.
Another assay concerns E. faecalis ES01. Briefly: microbe, parasite or virus in culture. The assay is classed as cell-based. To be noted: Enterococcus faecalis. The protocol: as §1, §2
Another assay deals with E. faecalis J2. Briefly: microbe, parasite or virus in culture. Type of assay: cell-based. To be noted: Enterococcus faecalis. The protocol:
as §1, §2

The next assay relates to E. faecalis JH2-2. Briefly: microbe, parasite or virus in culture. The assay is classed as cell-based. To be noted: Enterococcus faecalis, JH22. As to the method: as §1, §2
In a further assay the test system is E. faecalis SF23-1. In words: microbe, parasite or virus in culture. The assay is classed as cell-based. To be noted: Enterococcus faecalis, SF231. The protocol:
as §1, §2

For another assay, the system named is E. faecium HFY01. In words: microbe, parasite or virus in culture. To be noted: Enterococcus faecium. Type of assay: cell-based. As to the method:
as §1, §2

A further assay deals with E. faecium MC38. In words: microbe, parasite or virus in culture. Conditions: Enterococcus faecium. The assay is classed as cell-based. The protocol:
as §1, §2

For a further assay, the system named is E. faecium QF31. Briefly: microbe, parasite or virus in culture. Type of assay: cell-based. To be noted: Enterococcus faecium. As to the method:
as §1, §2

For a further assay, the system named is S. agalactiae DL03. In words: microbe, parasite or virus in culture. The assay is classed as cell-based. Conditions: Streptococcus agalactiae. The protocol:
as §1, §2

A further assay has as its system S. aureus M147-2. Briefly: microbe, parasite or virus in culture. Type of assay: cell-based. To be noted: Staphylococcus aureus, M1472. As to the method: as §1, §2
The next assay has as its system S. aureus M92-1. In words: microbe, parasite or virus in culture. Type of assay: cell-based. To be noted: Staphylococcus aureus, M921. As to the method: as §1, §2
For the next assay, the system named is S. aureus YZSA-15. Briefly: microbe, parasite or virus in culture. To be noted: Staphylococcus aureus, YZSA15. The assay is classed as cell-based. As to the method: as §1, §2
The subject of a further assay is S. aureus YZSA-21. Briefly: microbe, parasite or virus in culture. The assay is classed as cell-based. Conditions: Staphylococcus aureus, YZSA21. As to the method: as §1, §2
The subject of another assay is S. aureus YZSA-24. Briefly: microbe, parasite or virus in culture. The assay is classed as cell-based. To be noted: Staphylococcus aureus, YZSA24. As to the method:
as §1, §2

The next assay concerns S. pyogenes DL02. In words: microbe, parasite or virus in culture. The assay is classed as cell-based. To be noted: Streptococcus pyogenes. The protocol:
as §1, §2

The next assay concerns S. suis SH0918. Briefly: microbe, parasite or virus in culture. Conditions: Streptococcus suis. Type of assay: cell-based. As to the method: as §1, §2
The test system of the next assay is S. suis P1/7. In words: microbe, parasite or virus in culture. Conditions: Streptococcus suis, P1/7. The protocol:
as §1
Minimal inhibitory concentrations: Antimicrobial susceptibility testing was performed by broth microdilution method for AMPs against Gram-positive and Gram-negative pathogens above mentioned, following the methods of document CLSI M100-ED34.[43] The MICs were defined as the lowest concentrations that inhibit visible growth of the tested bacteria.

Setting [1] is: Acinetobacter baumannii, read-out: MIC.
The mark [2] stands for this setting: Klebsiella pneumoniae, 91, read-out: MIC.
[3] abbreviates: Pseudomonas aeruginosa, read-out: MIC.

With `C[C@H]1COc2c(N3CCN(C)CC3)c(F)cc3c(=O)c(C(=O)O)cn1c23` [LVX, Levofloxacin], the MIC is over 64 µg/mL in the assay with A. baumannii 7979 (setting [1]); 0.125 µg/mL (≈ 0.346 µM) against A. baumannii AB11 (Acinetobacter baumannii, AB11); 0.125 µg/mL (≈ 0.346 µM) against E. coli ATCC 25922 (Escherichia coli, ATCC25922); over 64 µg/mL in the assay with K. pneumoniae 9-1 (setting [2]); 0.125 µg/mL (≈ 0.346 µM) in the assay on P. aeruginosa PA14 (Pseudomonas aeruginosa, PA14); 0.5 µg/mL (≈ 1.38 µM) in the assay with P. aeruginosa PAO1 (setting [3]). Further, the MIC with S. enteritis S1 (read-out: MIC) is 0.5 µg/mL (≈ 1.38 µM).
With `CC(=O)NC[C@H]1CN(c2ccc(N3CCOCC3)c(F)c2)C(=O)O1` [LZD, linezolid], the MIC with S. aureus ATCC 29213 (Table 1, S. aureus ATCC 29213, broth microdilution, CLSI M100-ED34, read-out: MIC) was determined as 1 µg/mL (≈ 2.96 µM); in the assay on E. faecalis ES01 (Table 1, E. faecalis ES01, ermB, vanB, broth microdilution, read-out: MIC), 2 µg/mL (≈ 5.93 µM); in the assay on E. faecalis J2 (Table 1, E. faecalis J2, ermB, optrA, broth microdilution, read-out: MIC), 8 µg/mL (≈ 23.7 µM); in the assay with E. faecalis JH2-2 (Table 1, E. faecalis JH2-2, broth microdilution, read-out: MIC), 0.5 µg/mL (≈ 1.48 µM); in the assay on E. faecalis SF23-1 (Table 1, E. faecalis SF23-1, ermB, tetL, cfr, broth microdilution, read-out: MIC), 16 µg/mL (≈ 47.4 µM); in the assay with E. faecium HFY01 (Table 1, E. faecium HFY01, broth microdilution, read-out: MIC), 2 µg/mL (≈ 5.93 µM). Also, the MIC turned out to be 2 µg/mL (≈ 5.93 µM) in the assay on E. faecium MC38 (Table 1, E. faecium MC38, ermB, optrA, broth microdilution, read-out: MIC); 2 µg/mL (≈ 5.93 µM) in the assay on E. faecium QF31 (Table 1, E. faecium QF31, ermB, cfr, broth microdilution, read-out: MIC); 1 µg/mL (≈ 2.96 µM) with S. agalactiae DL03 (Table 1, S. agalactiae DL03, ermB, broth microdilution, read-out: MIC); 8 µg/mL (≈ 23.7 µM) in the assay with S. aureus M147-2 (Table 1, S. aureus M147-2, ermB, tetL, cfr, broth microdilution, read-out: MIC); 8 µg/mL (≈ 23.7 µM) with S. aureus M92-1 (Table 1, S. aureus M92-1, ermB, tetL, optrA, broth microdilution, read-out: MIC); 0.5 µg/mL (≈ 1.48 µM) with S. aureus YZSA-15 (Table 1, S. aureus YZSA-15, ermC, vanB, broth microdilution, read-out: MIC). Besides, the MIC in the assay on S. aureus YZSA-21 (Table 1, S. aureus YZSA-21, ermC, broth microdilution, read-out: MIC) is 1 µg/mL (≈ 2.96 µM); in the assay on S. aureus YZSA-24 (Table 1, S. aureus YZSA-24, ermC, mecA, broth microdilution, read-out: MIC), 0.5 µg/mL (≈ 1.48 µM); with S. pyogenes DL02 (Table 1, S. pyogenes DL02, ermB, broth microdilution, read-out: MIC), under 0.06 µg/mL; in the assay with S. suis SH0918 (Table 1, S. suis SH0918, ermB, tetO, optrA, broth microdilution, read-out: MIC), 8 µg/mL (≈ 23.7 µM); with S. suis P1/7, 0.125 µg/mL (≈ 0.371 µM).
`C[C@@H](O)[C@H]1C(=O)N2C(C(=O)O)=C(S[C@@H]3CN[C@H](C(=O)N(C)C)C3)[C@H](C)[C@H]12` [MEM, Meropenem]: the MIC is over 64 µg/mL in the assay on A. baumannii 7979 (setting [1]); under 0.06 µg/mL with A. baumannii AB11 (Acinetobacter baumannii, Table 1, A. baumannii AB11, broth microdilution, read-out: MIC); 0.25 µg/mL (≈ 0.652 µM) in the assay with E. coli ATCC 25922 (Escherichia coli, ATCC25922, Table 1, E. coli ATCC 25922, broth microdilution, read-out: MIC); 4 µg/mL (≈ 10.4 µM) in the assay with K. pneumoniae 9-1 (setting [2]); 0.5 µg/mL (≈ 1.3 µM) with P. aeruginosa PA14 (Pseudomonas aeruginosa, Table 1, P. aeruginosa PA14, broth microdilution, read-out: MIC); 0.5 µg/mL (≈ 1.3 µM) in the assay with P. aeruginosa PAO1 (setting [3]). Moreover, in the assay with S. enteritis S1 (read-out: MIC), the MIC was 0.25 µg/mL (≈ 0.652 µM).
With `CN[C@H](CC(C)C)C(=O)N[C@H]1C(=O)N[C@@H](CC(N)=O)C(=O)N[C@H]2C(=O)N[C@H]3C(=O)N[C@H](C(=O)N[C@H](C(=O)O)c4cc(O)cc(O)c4-c4cc3ccc4O)[C@H](O)c3ccc(c(Cl)c3)Oc3cc2cc(c3O[C@@H]2O[C@H](CO)[C@@H](O)[C@H](O)[C@H]2O[C@H]2C[C@](C)(N)[C@H](O)[C@H](C)O2)Oc2ccc(cc2Cl)[C@H]1O` [VAN, vancomycin], the MIC in the assay on S. aureus ATCC 29213 is 1 µg/mL (≈ 0.69 µM); in the assay on E. faecalis ES01 (ES01), 16 µg/mL (≈ 11 µM); with E. faecalis J2 (J2), 2 µg/mL (≈ 1.38 µM); against E. faecalis JH2-2, 2 µg/mL (≈ 1.38 µM); with E. faecalis SF23-1 it was 2 µg/mL (≈ 1.38 µM); against E. faecium HFY01 (HFY01), 0.5 µg/mL (≈ 0.345 µM). Moreover, the MIC was determined as 2 µg/mL (≈ 1.38 µM) in the assay on E. faecium MC38 (MC38); 2 µg/mL (≈ 1.38 µM) in the assay with E. faecium QF31 (QF31); 0.125 µg/mL (≈ 0.0863 µM) against S. agalactiae DL03 (DL03); 0.5 µg/mL (≈ 0.345 µM) in the assay on S. aureus M147-2; 1 µg/mL (≈ 0.69 µM) in the assay on S. aureus M92-1; 16 µg/mL (≈ 11 µM) against S. aureus YZSA-15. For the same compound, the MIC against S. aureus YZSA-21 was 1 µg/mL (≈ 0.69 µM); against S. aureus YZSA-24 it was under 0.06 µg/mL; with S. pyogenes DL02 (DL02), under 0.06 µg/mL; against S. suis SH0918 (SH0918), under 0.06 µg/mL; against S. suis P1/7, under 0.06 µg/mL.
For colistin [CST], the MIC with A. baumannii 7979 is under 0.06 µg/mL; against A. baumannii AB11 (Table 1, A. baumannii AB11, broth microdilution), 8 µg/mL; against E. coli ATCC 25922 (Table 1, E. coli ATCC 25922, broth microdilution), 1 µg/mL; against K. pneumoniae 9-1, 1 µg/mL; in the assay on P. aeruginosa PA14 (Table 1, P. aeruginosa PA14, broth microdilution) it was under 0.06 µg/mL; in the assay with P. aeruginosa PAO1, 0.125 µg/mL. Also, in the assay with S. enteritis S1, the MIC amounted to 0.5 µg/mL.
